Test results as given in patent US20240343699A1, “DERIVATIVES OF SUBSTITUTED MORPHOLINES AND USES THEREOF” (Supernus Pharmaceuticals, Inc., priority 2023, published 2024).
Like-named read-outs stand apart in the source and are kept apart here.

Columns and labels:
[1] = test system: cognitive flexibility; experiment: Operant set-shifting test against PCP; type: in vivo, male Wistar rats
Description: This assay serves as a model of impaired executive function associated with neuropsychiatric disorders like schizophrenia. The aim of this study was to evaluate COMPOUND C to reverse deficits observed with PCP on cognitive flexibility using the operant set-shifting test in the rat.
Substances & Formulation.
Doses were prepared by separate weighing (W/V). COMPOUND C formulations were prepared fresh on each dosing day and dosing was completed within 8 hours of formulation. Phencyclidine (PCP) hydrochloride, white powder, was dissolved in physiological saline by magnetic stirring, fresh each day of dosing.
Test System. 78 male Wistar rats were supplied for this study. • 72 rats, 8-9 weeks old, weighing 218-299 g at the beginning of the visual discrimination were submitted to the entire behavioral testing and assigned to match groups based on their performance during the second visual discrimination session. • 6 spare rats were submitted to lever pressing, side bias and visual discrimination but were discarded for the testing period (set-shift and reversal)
The experimental protocol which detects effects on behavioral flexibility follows that described by Floresco et al. (Behav. Brain Res., 190, 85-96 (2008)).
Apparatus. The apparatus consists of standard Med Associates ENV-008 Skinner boxes (30×25×30 cm) fitted with a house light, two retractable levers and a food pellet dispenser. The levers are located on either side of the food receptacle connected to the pellet dispenser. A light emitting diode stimulus light is positioned centrally above each lever and served as a stimulus for visual-cue discrimination learning.
Acquisition of lever-pressing (training). The aim of this phase was to train animals to lever-press to receive a food pellet reward.
Side bias. On the last day of training, the side bias for the rat was determined. The session was similar to the lever pressing session except that both levers were inserted into the chamber together (i.e. 90 levers presentations every 20 seconds). Again, the stimulus lights above each of the levers were not illuminated during this training session. On the first levers presentation, a food pellet was delivered after responding on either lever. Upon subsequent insertion of the levers, food was delivered only if the rat responded on the lever opposite to the one chosen initially. If the rat chose the same lever to the initial choice, no food was delivered. This continued until the rat chose the lever opposite to the one chosen initially. After choosing both levers, a new trial commenced. Thus, one trial for the side bias procedure consisted of responded on both levers. The sessions terminated after 90 levers presentations or after completion of 21 trials.
Visual-cue discrimination learning. After determining the side bias, animals were submitted to visual-cue discrimination learning.
A session began with both levers retracted and the chamber in darkness (the inter-trial state). Every 20 seconds, a trial began with illumination of one of the stimulus lights above one of the levers. 3 seconds later, the house light was illuminated, and both levers were inserted into the chamber. […] After food delivery, the house light remained on for another 4 seconds, after which the chamber returned to the inter-trial state. If the rat responded on the other lever (incorrect response), both levers retracted immediately without food delivery and the chamber reverted to the inter-trial state.

[2] = test system: locomotor activity; experiment: SmartCage locomotor activity; conditions: 24 hr
Description: Animals. […] Upon arrival at the facility, animals were group-housed (5/cage) with access to food and water ad libitum. Animals were maintained on a 12/12-hour light/dark cycle in a temperature—(22±2° C.) and humidity-(approx.35-50%) controlled room. Animals were numbered consecutively by tail ID marker in each home cage.
Locomotor Activity Monitoring. […] After the first day, animals were administered one of four doses (PO) of test article and monitored for the next 24 hours. The animal's activity during the monitored hours was quantified using the parameters of distance travelled, time active, and rearing activity.
SmartCage. After a washout period of at least 24 hours following a TST evaluation during which the animals were group-housed (5/cage), individual mice were placed into a freshly prepared home cage and their activity recorded simultaneously using the SmartCage™ system and a video camera placed above the SmartCage™ system.
Active wakefulness was defined as actively moving, rearing, and exploratory behaviors. […] Likewise, distance traveled in centimeters was obtained from the lower horizontal IR and calculated taking into account the animal's path. […] The calculated distance traveled (at any given time period, called ‘block’, or ‘total measuring period’) and speed were the two main parameters for locomotor activity. […]

[3] = Binding assays; conditions: 1.0E−05 M
Description: A study was conducted to test COMPOUND D and COMPOUND E in Binding and enzyme and uptake assays.
COMPOUND D and COMPOUND E were tested at 1.0E-05 M.
The results are expressed as a percent of control specific binding and as a percent inhibition of control specific binding
The IC50 values (concentration causing a half-maximal inhibition of control specific binding) and Hill coefficients (nH) were determined by non-linear regression analysis of the competition curves generated with mean replicate values using Hill equation curve fitting […]
where Y=specific binding, A=left asymptote of the curve, D=right asymptote of the curve, C=compound concentration, C50=IC50, and nH=slope factor. This analysis was performed using software developed at Cerep (Hill software) and validated by comparison with data generated by the commercial software SigmaPlot® 4.0 for Windows® (© 1997 by SPSS Inc.).
The inhibition constants (Ki) were calculated using the Cheng Prusoff equation where L=concentration of radioligand in the assay, and KD=affinity of the radioligand for the receptor. A scatchard plot is used to determine the KD.
In Vitro Pharmacology. Results showing an inhibition (or stimulation for assays run in basal conditions) higher than […] were considered to represent significant effects of the test compounds. Results showing an inhibition (or stimulation) between 25% and 50% are indicative of weak to moderate effects. Results showing an inhibition (or stimulation) lower than […] were not considered significant and mostly attributable to variability of the signal around the control level.

[4] = Plasma stability in rat plasma; type: in vitro ADME, Sprague Dawley rat; conditions: final concentration 2 μM
Description: A study was conducted to examine the plasma stability. Test Compounds: COMPOUND D, COMPOUND E, and Viloxazine. Positive controls: Enalapril and Propantheline.
A study was conducted to examine the bioanalytical data for compounds in Rat plasma. Frozen Sprague Dawley rat (male pooled) and human (mixed gender) plasma was utilized for the study. Test compounds were dissolved in dimethyl sulfoxide (DMSO) to make a 10 mM stock solution. A working solution was made with MeOH/water. COMPOUND E ([…]) was incubated with plasma in duplicates at 37° C. in a water bath. Sampling timepoints included 0, 5, 15, 30, and 60 min Enalapril and propantheline were used as positive control for rat and human plasma at 2 μM

[5] = type: in vitro ADME; conditions: Rat plasma, wet ice bath
Description: A study was conducted to examine the bioanalytical data for compounds in Rat plasma. […] Frozen Sprague Dawley rat (male pooled) and human (mixed gender) plasma was utilized for the study. Test compounds were dissolved in dimethyl sulfoxide (DMSO) to make a 10 mM stock solution. A working solution was made with MeOH/water. […]

[6] = 5% Paraoxon ethyl as stabilizer, HQC, 0 hr sample
[7] = 5% Paraoxon ethyl as stabilizer, HQC, 1 hr
[8] = 5% Paraoxon ethyl as stabilizer, HQC, 1 hr sample
[9] = 5% Paraoxon ethyl as stabilizer, HQC, 2 hr
[10] = 5% Paraoxon ethyl as stabilizer, HQC, 2 hr sample
[11] = 5% Paraoxon ethyl as stabilizer, LQC, 0 hr sample
[12] = 5% Paraoxon ethyl as stabilizer, LQC, 1 hr
[13] = 5% Paraoxon ethyl as stabilizer, LQC, 1 hr sample
[14] = 5% Paraoxon ethyl as stabilizer, LQC, 2 hr
[15] = 5% Paraoxon ethyl as stabilizer, LQC, 2 hr sample
[16] = No stabilizer, HQC, 0 hr sample
[17] = No stabilizer, HQC, 1 hr sample
[18] = No stabilizer, HQC, 2 hr sample
[19] = No stabilizer, LQC, 0 hr sample
[20] = No stabilizer, LQC, 1 hr sample
[21] = No stabilizer, LQC, 2 hr sample

Row | Compound | % Remaining at 60 min (Mean) [4] | Mean peak area ratio [5, 6] | % stability [5, 7] | Mean peak area ratio [5, 8] | % stability [5, 9] | Mean peak area ratio [5, 10] | Mean peak area ratio [5, 11] | % stability [5, 12] | Mean peak area ratio [5, 13] | % stability [5, 14] | Mean peak area ratio [5, 15] | Mean peak area ratio [5, 16] | % stability ([5]; No stabilizer, HQC, 1 hr) | Mean peak area ratio [5, 17] | % stability ([5]; No stabilizer, HQC, 2 hr) | Mean peak area ratio [5, 18] | Mean peak area ratio [5, 19] | % stability ([5]; No stabilizer, LQC, 1 hr) | Mean peak area ratio [5, 20] | % stability ([5]; No stabilizer, LQC, 2 hr) | further results
1 | CCOc1ccccc1OC[C@@H]1CN(C(=O)OC(OC(=O)[C@H](N)C(C)C)C(C)C)CCO1 (stereo partly shown) [COMPOUND C] | – | – | – | – | – | – | – | – | – | – | – | – | – | – | – | – | – | – | – | – | number of omissions, post-hoc Dunnett ([1]; COMPOUND C 120 mg/kg p.o. + PCP, first set-shift session): significant effects at the dose of 120 mg/kg; number of perseverative errors vs PCP controls ([1]; COMPOUND C 40, 80, 120 and 160 mg/kg p.o. + PCP): did not significantly affect; number of trials to reach the criterion vs PCP controls ([1]; COMPOUND C 40, 80, 120 and 160 mg/kg p.o. + PCP, first set-shift and first reversal sessions): did not significantly affect the number of trials to reach the criterion; omissions vs PCP-treated rats ([1]; COMPOUND C 40-160 mg/kg p.o. + PCP): increased omissions; home cage activity (activity, rearing, distance, velocity) ([2]; COMPOUND C 10, 30, 60 and 90 mg/kg PO): no significant effect on daytime or nighttime activity measurements
2 | CCOc1ccccc1OCC1CN(C(=O)OC(C)OC(=O)[C@H](N)C(C)C)CCO1 (stereo partly shown) [COMPOUND D] | 0.0% | 1.83 | 58.7% | 1.07 | 26.0% | 0.47 | 0.00608 | 57.3% | 0.00348 | 36.9% | 0.00224 | 0.67 | 31.2% | 0.21 | 8.0% | 0.05 | 0.00292 | 30.1% | 0.00088 | 6.8% | inhibition, 5-HT2B(h) (antagonist effect) [3]: 81.5%; inhibition, 5-HT2c(h) (antagonist effect) [3]: 72.4%; inhibition, 5-HT4e(h) (antagonist radioligand) [3]: 78.6%; inhibition, norepinephrine transporter(h) (antagonist radioligand) [3]: 78.4%; Mean peak area ratio [5, 21]: 0.0002
3 | CCOc1ccccc1OCC1CN(C(=O)OC(OC(=O)[C@@H](N)C(C)C)C(C)C)CCO1 (stereo partly shown) [COMPOUND E] | 0.0% | 3.38 | 79.5% | 2.69 | 62.9% | 2.13 | 0.00882 | 68.3% | 0.00602 | 63.7% | 0.00562 | 1.58 | 20.9% | 0.33 | 2.5% | 0.04 | 0.00472 | 28.2% | 0.00133 | 5.3% | inhibition, 5-HT2B(h) (agonist radioligand) [3]: 80.2%; inhibition, 5-HT2C(h) (agonist radioligand) [3]: 54.1%; inhibition, Ca^2+ channel (L, diltiazem site) (benzothiazepines) (antagonist radioligand) [3]: 78.9%; inhibition, Ca^2+ channel (L, verapamil site) (phenylalkylamine) (antagonist radioligand) [3]: 50.7%; inhibition, MT3 (ML2) (agonist radioligand) [3]: 51.1%; inhibition, Na^+ channel (site 2) (antagonist radioligand) [3]: 84.5%; Mean peak area ratio [5, 21]: 0.00025
4 | CCOc1ccccc1OC[C@@H]1CN(C(=O)OC(C)OC(=O)[C@@H](N)C(C)C)CCO1 (stereo partly shown) [COMPOUND A] | – | – | – | – | – | – | – | – | – | – | – | – | – | – | – | – | – | – | – | – | home cage activity (activity, rearing, distance, velocity) ([2]; COMPOUND A 10, 30 and 90 mg/kg PO): no significant effect on daytime or nighttime activity measurements
